Measurements taken from patent US5280015A, “2-substituted adenosines and 2-substituted adenosine 5'-carboxamides” (priority 1990, dated 1994).
Values joined by “and” are separate entries in the source; they are usually repeats but may differ in a detail not shown here. Equal entries are not always repeated. Structures can show the parent of a compound that is named as a salt. Where two headings read alike, the source gives them in different places.

How the values were obtained:
A1-adenosine receptors = molecular target: T1, A1-adenosine receptors (Rattus norvegicus, UniProt P25099); assay: Competitive binding assay at A1-adenosine receptors, rat cerebral cortex membranes ([3H]PIA or [3H]CHA)
T1 construct: rat cerebral cortex membranes; from tissue; host or cells: rat cerebral cortex membranes
T1 sequence (P25099 1-326): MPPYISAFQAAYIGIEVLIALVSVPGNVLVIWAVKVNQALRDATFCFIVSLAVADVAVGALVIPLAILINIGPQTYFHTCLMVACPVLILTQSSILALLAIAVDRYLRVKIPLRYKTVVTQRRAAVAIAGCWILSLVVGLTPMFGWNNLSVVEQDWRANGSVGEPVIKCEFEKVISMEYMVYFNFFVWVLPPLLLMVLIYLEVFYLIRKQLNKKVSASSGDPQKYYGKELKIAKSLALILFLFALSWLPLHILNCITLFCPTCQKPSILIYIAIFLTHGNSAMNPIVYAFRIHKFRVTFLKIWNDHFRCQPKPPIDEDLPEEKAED

A2-adenosine receptors [1] = assay: Competitive binding assay in bovine brain using 125I-PAPA-APEC (striatal membranes); conditions: for Ki (A1)/K1 (A2): ratio of Ki at A1-receptors (rat) versus Ki in the 125I-PAPA-APEC assay (bovine)
Procedure: (§1) The filters were washed with three×3 ml aliquots of pH 7.2 buffer containing 50 mM HEPES, 10 mM Mg^+2, and 0.05% CHAPS. The filters were placed in polypropylene tubes and counted in a Packard gamma counter.

A2-adenosine receptors [2] = molecular target: T2, A2-adenosine receptors (Rattus norvegicus, UniProt P30543); assay: Inhibition of binding of [3H]CGS21680 to A2-adenosine receptors in rat striatal membranes
T2 construct: rat striatal membranes; from tissue; host or cells: rat striatal membranes
Procedure: (§2) Stock solutions of representative compounds of the present invention in the millimolar concentration range in dimethylsulfoxide were prepared for the binding assays. […] Protein was determined using the BCA (based on the complex with cuprous ions and bicinchoninic acid) protein assay reagents purchased from Pierce Chemical Co., Rockford, Ill.
The membrane suspension was then centrifuged at 37,000×g for 20 min at 4° C. The pellet was resuspended in buffer containing 2 IU/ml adenosine deaminase, Type VI from calf intestinal mucosa (Sigma, St. Louis, Mo.) to 20 mg/ml original tissue weight and incubated at 37° C. for 30 min. The membrane homogenate was recentrifuged as before, and the pellet was stored frozen at -70° C. until use.
For competitive binding assays using [^3 H]CGS21680, a volume of 1 ml was used in each 13×100 mm glass tube. […] The mixture was incubated with shaking for 90 min at 24° C. The samples were filtered on a Brandel Cell Harvester (Brandel, Gaithersburg, Md.) with Whatman GF/B filters, and washed rapidly twice with 5 ml of ice cold 50 mM Tris, pH 7.4. Each filter disc was added to 4 ml of scintillation fluid, vortexed, and counted after 6 hours.

A2 adenosine receptors = A2 adenosine receptors (Bos taurus, UniProt E1BKU0); assay: Competitive binding assay in bovine brain using 125I-PAPA-APEC (striatal membranes); design: Bovine striatal membranes; from tissue; host or cells: bovine (calf) striatal membranes
Procedure: as §1

[3] = system: locomotor activity in NIH mice; assay: Locomotor depression by A2 adenosine agonists in mice (Digiscan activity monitor); format: in vivo, mouse; conditions: for locomotor depression (% decrease in horizontal activity from vehicle control) / ED50: ip; for ED50: Mus musculus, read-out: ED50, locomotor depression; for reversal of APEC locomotor depression by antagonist: antagonist injected before APEC, 8-cyclopentyltheophylline 10 mg/kg
A2-adenosine receptors [4] = molecular target: T2, A2-adenosine receptors; assay: Inhibition of binding of [3H]NECA to A2-adenosine receptors in rat striatal membranes
Procedure: as §2
N^6 -Cyclopentyladenosine was present at 50 nM to inhibit binding of the ligand at A1 -adenosine receptors.

[5] = rat, [3H]PIA, read-out: Ki, inhibition of binding of [3H]PIA at A1-receptors
[6] = read-out: Ki, inhibition of binding of [3H]CGS21680 at A2-receptors
[7] = bovine striatum; 11, 12 and 14: apparent Ki; read-out: Ki, inhibition of binding of 125I-PAPA-APEC at A2-receptors
[8] = rat, [3H]N6-cyclohexyladenosine (footnote c), read-out: Ki, inhibition of binding at A1-receptors using [3H]N6-cyclohexyladenosine
[9] = Ki, inhibition of binding of 125I-PAPA-APEC at A2-receptors, bovine striatum; 11, 12 and 14: apparent Ki
[10] = rat striatum, 11, 12 and 14: apparent Ki, read-out: Ki, inhibition of binding of [3H]CGS21680 at A2-receptors
[11] = bovine brain A2; relative to compounds with Ki less than 10 nM

A2 adenosine receptors, sequence (E1BKU0 1-401): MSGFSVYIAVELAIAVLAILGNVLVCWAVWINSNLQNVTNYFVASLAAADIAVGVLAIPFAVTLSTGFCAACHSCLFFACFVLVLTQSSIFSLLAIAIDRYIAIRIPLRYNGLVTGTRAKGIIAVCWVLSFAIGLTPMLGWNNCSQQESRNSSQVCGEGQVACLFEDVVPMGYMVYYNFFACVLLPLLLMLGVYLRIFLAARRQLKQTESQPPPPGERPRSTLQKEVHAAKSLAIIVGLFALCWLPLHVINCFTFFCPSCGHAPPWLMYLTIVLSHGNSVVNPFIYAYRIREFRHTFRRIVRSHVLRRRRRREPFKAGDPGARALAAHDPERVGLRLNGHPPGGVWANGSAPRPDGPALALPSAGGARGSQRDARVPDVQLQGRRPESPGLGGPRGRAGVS
T2 sequence (P30543 whole entry): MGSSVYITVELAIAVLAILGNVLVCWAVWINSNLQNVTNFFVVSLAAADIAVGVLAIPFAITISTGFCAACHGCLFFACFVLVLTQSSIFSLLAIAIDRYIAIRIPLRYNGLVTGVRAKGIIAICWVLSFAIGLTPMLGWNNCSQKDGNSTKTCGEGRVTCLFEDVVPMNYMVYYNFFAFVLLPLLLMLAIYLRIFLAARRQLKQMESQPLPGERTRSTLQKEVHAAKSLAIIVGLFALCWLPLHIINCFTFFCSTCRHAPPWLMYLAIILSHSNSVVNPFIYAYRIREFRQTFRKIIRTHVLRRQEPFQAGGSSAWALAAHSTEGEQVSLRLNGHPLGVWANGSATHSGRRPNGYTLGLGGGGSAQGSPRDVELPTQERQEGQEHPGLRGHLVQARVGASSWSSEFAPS

Compound | Ki (A1-adenosine receptors; [5]) [nM] | Ki (A1)/K1 (A2) (A2-adenosine receptors [1]) | Ki (A2-adenosine receptors [2]; [6]) [nM] | Ki (A2 adenosine receptors; [7]) | other results
CCNC(=O)[C@H]1O[C@@H](n2cnc3c(N)nc(NCCc4ccc(CCC(=O)NCCNC(=O)CBr)cc4)nc32)[C@H](O)[C@@H]1O [Compound 14] | 1980 ± 102 | 125 | 69.7 | 15.8 ± 4.8 nM | –
CCNC(=O)[C@H]1O[C@@H](n2cnc3c(N)nc(NCCc4ccc(CCC(=O)NCCNC(=O)CCc5ccc(O)cc5)cc4)nc32)[C@H](O)[C@@H]1O [Compound 4] | – | 72 | 13 ± 4 | 13.2 ± 1.5 nM | Ki (A1-adenosine receptors; [8]): 950 ± 100 nM; locomotor depression (% decrease in horizontal activity from vehicle control) ([3]; mouse, in vivo): 44±7%
CCNC(=O)[C@H]1O[C@@H](n2cnc3c(N)nc(NCCc4ccc(CCC(=O)NCCNc5ccc([N+](=O)[O-])c6nonc56)cc4)nc32)[C@H](O)[C@@H]1O [Compound 17] | – | – | – | 31.6 ± 1.3 nM | affinity at A2-adenosine receptors (A2-adenosine receptors [1]; fluorescent probes, derivatives in general): high affinity
CCNC(=O)[C@H]1O[C@@H](n2cnc3c(N)nc(NCCc4ccc(CCC(=O)NCCN)cc4)nc32)[C@H](O)[C@@H]1O [Compound 3] | 235 ± 54 | 16 | 12 ± 3 | < 10 nM and 6.1 nM | Ki (A2-adenosine receptors [4]; read-out: Ki, inhibition of binding of [3H]NECA at A2-receptors, rat striatum, 11, 12 and 14: apparent Ki): 5.73 ± 0.52 nM; ED50 [3]: 0.016 mg/kg; locomotor depression ([3]; mice, i.p., horizontal activity and total distance traveled): potent locomotor depressant in mice in a dose-dependent manner
NCCNC(=O)Cc1ccc(NC(=O)Cc2ccc(Nc3ncnc4c3ncn4[C@@H]3O[C@H](CO)[C@@H](O)[C@H]3O)cc2)cc1 [ADAC, reference compound] | – | – | – | – | Ki (A2-adenosine receptors [4]): 210 nM; Ki (A2-adenosine receptors [2]): 218 ± 28 nM
CCCn1c(=O)c2[nH]c(C3CCCC3)nc2n(CCC)c1=S [8-cyclopentyl-1,3-dipropyl-2-thioxanthine] | – | – | – | – | reversal of APEC locomotor depression by antagonist ([3]; mice): not
CCNC(=O)[C@H]1O[C@@H](n2cnc3c(N)nc(NCCc4ccc(CCC(=O)NCCNC(=O)Cc5cccs5)cc4)nc32)[C@H](O)[C@@H]1O [Compound 5] | – | 66 | 15 ± 1 | 21.3 ± 7.9 nM | Ki (A1-adenosine receptors; [8]): 1400 ± 100 nM; locomotor depression (% decrease in horizontal activity from vehicle control) ([3]; mouse, in vivo): 49±9%
CCNC(=O)[C@H]1O[C@@H](n2cnc3c(N)nc(NCCc4ccc(CCC(=O)NCCNC(=S)Nc5ccc(N=C=S)cc5)cc4)nc32)[C@H](O)[C@@H]1O [Compound 12] | – | 39 | – | – | Ki (A1-adenosine receptors): 276 ± 75 nM; Ki (A2-adenosine receptors [2]): 35 ± 10 nM; Ki (A2 adenosine receptors; [9]): < 10 nM and 7.1 nM
Cn1c(=O)c2[nH]c(C3CCCC3)nc2n(C)c1=O [8-cyclopentyltheophylline] | – | – | – | – | reversal of APEC locomotor depression by antagonist ([3]; mice): not
CCNC(=O)[C@H]1O[C@@H](n2cnc3c(N)nc(NCCc4ccc(CCC(=O)NCCNC(=S)Nc5ccc(S(=O)(=O)O)cc5)cc4)nc32)[C@H](O)[C@@H]1O [Compound 13, 2-[4-[2-[2-[4-(Sulfophenylthioureidyl)]-ethylaminocarbonyl]ethyl]phenyl]ethylamino]-5'-N-ethylcarboxamidoadenosine sodium salt] | 3780 ± 800 | 347 | – | 10.9 ± 2.3 nM | selectivity for A2 receptors (A2-adenosine receptors [1]; A2 versus A1): more than 200 fold; Ki (A2-adenosine receptors [2]; [10]): 26 ± 10 nM; locomotor depression (% decrease in horizontal activity from vehicle control) ([3]; mouse, in vivo): 41±5%
CCNC(=O)[C@H]1O[C@@H](n2cnc3c(N)nc(NCCc4ccc(CCC(=O)NCCCCNC(=O)c5ccc(CF)cc5)cc4)nc32)[C@H](O)[C@@H]1O [Compound 16] | 1450 ± 67 | 57 | 18.9 ± 4.9 | 25.4 ± 7.6 nM | locomotor depression (% decrease in horizontal activity from vehicle control) ([3]; […]): 50±4%; potency in displacing 125I-PAPA-APEC binding (A2 adenosine receptors; [11]): less potent
Cn1c(=O)c2[nH]cnc2n(C)c1=O [theophylline] | – | – | – | – | total distance traveled restored, % of control ([3]; antagonist 10 mg/kg, at the ED50 dose of APEC, mice): 95±12 % of control; reversal of APEC locomotor depression by antagonist ([3]; mice): reversible by theophylline
CCNC(=O)[C@H]1O[C@@H](n2cnc3c(N)nc(NCCc4ccc(CCC(=O)NCCNC(=O)CCCC[C@@H]5SC[C@@H]6NC(=O)N[C@@H]65)cc4)nc32)[C@H](O)[C@@H]1O [Compound 10] | – | > 350 | 55 ± 30 | 14.3 ± 3.3 nM | Ki (A1-adenosine receptors; [8]): > 5000 nM
CCNC(=O)[C@H]1O[C@@H](n2cnc3c(N)nc(NCCc4ccc(CCC(=O)NCCNC(=O)Cc5ccc(NC(=O)OCc6ccccc6)cc5)cc4)nc32)[C@H](O)[C@@H]1O [Compound 7] | 278 ± 18.7 | 45 | 37 ± 5 | < 10 nM and 6.2 nM | Ki (A2-adenosine receptors [4]): 5.59 ± 0.99 nM
CCNC(=O)[C@H]1O[C@@H](n2cnc3c(N)nc(NCCc4ccc(CCC(=O)OC)cc4)nc32)[C@H](O)[C@@H]1O [Compound 2] | – | 370 | 5 ± 2 | < 10 nM and 6.1 nM | Ki (A1-adenosine receptors; [8]): 2260 ± 440 nM; Ki (A2-adenosine receptors [4]): 17.5 ± 1.6 nM
CCNC(=O)[C@H]1O[C@@H](n2cnc3c(N)nc(NCCc4ccc(CCC(=O)NCCNC(=S)NC5CC(C)(C)N([O])C(C)(C)C5)cc4)nc32)[C@H](O)[C@@H]1O [Compound 15] | – | – | – | – | Ki (A1-adenosine receptors; read-out: Ki, inhibition of binding at A1-receptors using [3H]N6-cyclohexyladenosine, rat, [3H]N6-cyclohexyladenosine (footnote c)): 177 ± 38 nM; Ki (A2-adenosine receptors [2]; read-out: Ki, inhibition of binding of [3H]CGS21680 at A2-receptors, rat striatum, 11, 12 and 14: apparent Ki): 27 ± 3 nM; Ki (A2 adenosine receptors; read-out: Ki, inhibition of binding of 125I-PAPA-APEC at A2-receptors; bovine striatum; 11, 12 and 14: apparent Ki): 14.8 ± 3.6 nM
CCNC(=O)[C@H]1O[C@@H](n2cnc3c(N)nc(NCCc4ccc(CCC(=O)NCCNC(=O)c5cccc(NC(=O)OCc6ccccc6)c5)cc4)nc32)[C@H](O)[C@@H]1O [Compound 9] | – | 78 | 12 ± 2 | < 10 nM and 8.7 nM | Ki (A1-adenosine receptors; [8]): 680 ± 110 nM
CCNC(=O)[C@H]1O[C@@H](n2cnc3c(N)nc(NCCc4ccc(CCC(=O)NCCNC(=O)c5cccc(N)c5)cc4)nc32)[C@H](O)[C@@H]1O [Compound 8] | 1340 ± 28 | 31 | – | 43.6 ± 5.2 nM | Ki (A2-adenosine receptors [2]; [10]): 16.5 ± 2.8 nM; potency in displacing 125I-PAPA-APEC binding (A2 adenosine receptors; [11]): less potent
CCNC(=O)[C@H]1O[C@@H](n2cnc3c(N)nc(NCCc4ccc(CCC(=O)NCCNC(=S)Nc5cccc(N=C=S)c5)cc4)nc32)[C@H](O)[C@@H]1O [Compound 11] | – | 11 | – | – | Ki (A1-adenosine receptors): 69.7 ± 7.9 nM; Ki (A2-adenosine receptors [4]): 2.82 ± 0.38 nM; Ki (A2-adenosine receptors [2]): 22 ± 7 nM; Ki (A2 adenosine receptors; [9]): < 10 nM and 6.2 nM
OC[C@H]1O[C@@H](n2cnc3c(NC4CCCCC4)ncnc32)[C@H](O)[C@@H]1O [CHA, N^6 -cyclohexyladenosine] | – | – | – | – | ED50 ([3]; mice, i.p., from dose response curves): 0.06 mg/kg; reversal of agonist-elicited locomotor depression by A1-selective antagonists ([3]; mice, agonist with A1-selective antagonists): reversed by A1 -selective antagonists
